Measurements published in publication PMC9114338 (Scientific Reports, 2022).

Experiments:
[1] = MALDI imaging mass spectrometry of dermal tissues adjacent to the implant; format: in vivo, C57BL/6 J mice; conditions: for Detection by MALDI-IMS in dermal tissue samples during implant TAF delivery: all medicated specimens; for Spatial distribution in dermal tissue sections (MALDI-IMS): high-releasing (0.58 mg d^-1) implants, D3–D28; for MALDI-IMS signal and localization with implant in situ: low-releasing (0.23 mg d^-1) implants, Day 14, 100 µm resolution
Procedure: The used implants, the surrounding capsule, and the encasing dermal tissue were removed as a block in accordance with ISO 10993-6 guidelines, processed and stored, as described elsewhere. Briefly, the capsule was cut longitudinally and rolled open, taking care not to disrupt the architecture of the tissue or to damage the used implant. A portion of the tissue specimen was placed into 4% paraformaldehyde solution (phosphate-buffered at pH 7.2), and stored at 4 °C, for histopathology and two other portions were flash-frozen in liquid nitrogen for drug concentration analysis as well as for drug spatial distribution analysis by MALDI-IMS (vide infra).
Frozen mouse tissue specimens were shipped to Vanderbilt University on dry ice and stored at − 80 °C prior to use. Tissues were removed from the − 80 °C freezer and placed in a − 20 °C cryostat (CM 1900, Leica Biosystems, Buffalo Grove, IL) and sectioned. Tissue samples that had been prepared via removal of the used implant were affixed to the cryostat chuck with optimal cutting temperature (OCT) polymer and were cut on the cryostat into 12 µm thick sections for imaging mass spectrometry and H&E staining.
Tissue samples that still contained the implant in place were embedded in OCT prior to sectioning. In order to minimize the artifactual signal from the TAF powder after sectioning (the act of the cryostat blade cutting through an intact implant distributed residual TAF powder that still remained in the used implant onto the surrounding tissue section), house vacuum was used to remove visible TAF powder, followed by lightly running nitrogen gas over the plate to remove any additional loose powder from the slide.
The tissue sections were thaw-mounted onto indium-tin oxide coated glass slides for imaging (Delta Technologies, Ltd, Loveland, CO). The tissue sections were left to dry for at least 15 min in a desktop vacuum desiccator prior to matrix application. […] For 9AA, four passes were applied at 85 °C in a crisscross pattern, with a 700 mm min^-1 stage velocity, 2 mm track spacing, and 0.15 mL min^-1 flow rate. For DHB the same method was used, except eight passes were applied and the stage velocity was 1300 mm min^-1.
Flash-frozen dermal tissue samples collected adjacent to the TAF implants and sectioned were analyzed with a linear ion trap mass spectrometer equipped with a MALDI source and a nitrogen laser (LTQ XL, Thermo Scientific, Waltham, MA). The structures of compounds of interest are shown in Scheme 1. Targeted MS/MS methods were optimized for each compound using authentic samples as standards, with the final parameters shown in Appendix A under Supplementary Information. Pseudo-selected reaction monitoring mode was used for imaging by isolating precursor ions with a 1 Da window, fragmenting them, and acquiring full product ion mass spectra at each pixel. TFV, TFV-MP, and TFV-DP were analyzed in negative ion mode, while TAF, Metabolite X, and Metabolite Y were analyzed in positive ion mode. In most cases, after imaging, the matrix was removed and the tissue section that had been imaged was H&E stained for better image registration with tissue morphology. Standard images were acquired at either 50 or 100 µm spatial resolution. Reconstructed ion images were generated in ImageQuest software (Thermo Scientific, Waltham, MA) by plotting the intensity of the diagnostic fragment ion or ions as a function of location across the tissue surface.

[2] = rat, in vivo; cited from earlier work
[3] = design: method as in PMID 23600365; conditions: healthy individuals; cited from earlier work
[4] = test system: HIV-1; conditions: cited from earlier work
[5] = Subdermal TAF implant pharmacokinetic mouse study; format: in vivo; conditions: low- and high-releasing implants
Text: Two study groups are described here: one low-releasing and one high-releasing implant group. Animals (N = 3 per implant group) were sacrificed at the following timepoints: Day 3, 7, 14, 21, and 28 (15 mice total per implant group).

[6] = Subcutaneous TAF injection pharmacokinetic mouse study; format: in vivo, C57BL/6 J mice; conditions: C57BL/6 J, PBMCs, 0.5 mg, read-out: PBMC TFV-DP t1/2 (converted)
Procedure: C57BL/6 J Mice (12 groups of 4 animals each; 48 mice total) were administered the study product (0.5 mg dose, 0.1 mL) described above by subcutaneous (SQ) injection. Animals (N = 4) were sacrificed at the following timepoints: Day 1 (1, 3, 6, 12, 24 h), Day 2, 4, 6, 8, 10, 12, and 14. Blood was collected by exsanguination and processed as described above.
(§1) PBMC results were normalized to the number of cells and reported as fmol/10^6 cells or as intracellular concentration based on cell volume, in nM. Tissue results were normalized to sample mass and reported as ng mg^-1 or fmol mg^-1.

[7] = Intravenous TAF pharmacokinetic mouse study (plasma, PBMC, tissue homogenate); format: in vivo, C57BL/6 J mice; conditions: for half-life: C57BL/6 J, mouse, iv, 0.5 mg
Procedure: C57BL/6 J Mice (9 groups of 4 animals each; 36 mice total) were administered the study product (0.5 mg dose, 0.1 mL) by intravenous (IV) injection. Animals (N = 4) were sacrificed at the following timepoints: Day 1 (1, 3, 6, 12, 24 h), Day 2, 4, 8, and 14. Blood was collected by exsanguination along with select tissue specimens (vide infra).
The isolation of plasma and PBMCs from blood samples was carried out in a laminar flow hood using aseptic techniques, and the entire process was completed in under 45 min to minimize analyte metabolism. Blood was transferred into collection tubes containing sodium citrate (final concentration, 0.4% w/v), diluted using one volume equivalent of 1 × PBS solution, and mixed by inversion. The minimum final volume was 4.0 mL. Prior to the addition of blood samples, Ficoll-Paque media (MilliporeSigma, Burlington, MA, 3.2 mL) was transferred into a 12 mL LeucoSep tube (Greiner, Monroe, NC) and centrifuged at 1000 g for 20 s at room temperature, causing the media to settle just below the porous barrier. The homogenous, diluted blood-PBS mixture was transferred into the prepared LeucoSep tube and centrifuged at 1000 g for 10 min at room temperature, resulting in the formation of three layers above the porous barrier: (A) top layer, consisting of the plasma fraction; (B) middle, interface layer, containing the PBMCs; and (C) thin lower layer, just above the barrier, consisting of Ficoll-Paque media. Layer A (plasma) was transferred to empty 1.5 mL microfuge tubes in 0.5 mL aliquots, and flash-frozen in liquid nitrogen. Layer B (PBMCs) was transferred into an empty 15 mL centrifuge tube and PBS added to the 12 mL mark, followed by gentle inversion mixing. The suspension was centrifuged at 400 g for 15 min, the supernatant removed, and the pellet resuspended in PBS (10 mL) by gentle pipetting. An aliquot (10 µL) was removed from the suspension for cell counting and the remaining sample was centrifuged at 400 g for 15 min. The supernatant was removed without disturbing the cell pellet, which was treated with ice-cold 70% v/v methanol in molecular-grade water (1.0 mL). The mixture was mixed lightly by vortex agitation to lyse the cells, followed by transfer to a 2.0 mL cryovial that was flash-frozen in liquid nitrogen.
Vaginal, rectal, spleen, and thymus tissue samples were collected from sacrificed animals at Day 1 (12, 24 h), Day 4, and 8; rectal tissue samples were not collected at 12 h. The samples were transferred into pre-weighed sample tubes, weighed, and flash-frozen in liquid nitrogen.
as §1

With `C[C@H](Cn1cnc2c(N)ncnc21)OC[P@@](=O)(O)N[C@@H](C)C(=O)O` [Metabolite X] the “Detection by MALDI-IMS in dermal tissue samples during implant TAF delivery” value (“Detection by MALDI-IMS” below) [1] was “detected”, the “Spatial distribution in dermal tissue sections (MALDI-IMS)” value (from here on “Spatial distribution”) [1] was “localized close to the implant” and the “MALDI-IMS signal and localization with implant in situ” value (from here on “MALDI-IMS signal and localization”) [1] was “localized close to the implant”.
In the case of `CC(C)OC(=O)[C@H](C)N[P@](=O)(O)CO[C@H](C)Cn1cnc2c(N)ncnc21` [Metabolite Y], the “Detection by MALDI-IMS” value [1] is reported as “detected”, the “Spatial distribution” value [1] is reported as “localized close to the implant” and the “MALDI-IMS signal and localization” value [1] is reported as “localized close to the implant”.
For `O=C(O)C[C@@H]1Cc2ccc(OCCCNc3ccccn3)cc2Cc2ccccc21` [SB-265123], the “Apparent oral F” value [2] is given as “exceeding 100%”.
In the case of `C[C@H](Cn1cnc2c(N)ncnc21)OCP(=O)(O)OP(=O)(O)OP(=O)(O)O` [TFV-DP, TFV diphosphate], the “Intracellular (PBMC) TFV-DP half-life” value [3] is listed as 48 h, the “TFV-DP EC90 (more conservative)” value ([4]; corrected for TFV-DP loss on cryopreservation) is listed as 24 to 48 fmol/10^6 cells and the “PBMC TFV-DP concentration associated with 90% protection” value ([4]; post hoc analysis of iPrEX, cryopreserved PBMCs) is listed as 16 fmol/10^6 cells. For the same compound, the “Share of total TFV species present as TFV-DP, dermal tissue adjacent to TAF implants” value [5] was “less than 1%”, the “Detection by MALDI-IMS” value [1] was “detected” and the “Spatial distribution” value [1] was “distributed homogeneously throughout the samples”. The “MALDI-IMS signal and localization” value [1] was “weak”, the half-life [6] was 17 h and the half-life ([7]; PBMCs, read-out: PBMC TFV-DP t1/2 (converted)) was 41 h. The “Share of total TFV present as TFV-DP, vaginal tissue” value ([7]; IV TAF dosing) was 5.1%, the “Median vaginal x(TFV-DP) lower than rectal, spleen, thymus” value ([7]; IV TAF, depending on the compartment) was 4.7–6.7 fold and the half-life ([7]; female, rectal tissue, read-out: Terminal half-life in rectal tissue (NCA) (converted)) was 26.4 h. It also gave a half-life ([7]; female, spleen, read-out: Terminal half-life in spleen (NCA) (converted)) of 23.3 h, a half-life ([7]; female, thymus, read-out: Terminal half-life in thymus (NCA) (converted)) of 23.3 h and a half-life ([7]; female, vaginal tissue, read-out: Terminal half-life in vaginal tissue (NCA) (converted)) of 31.2 h. The “Duration of TFV-DP concentrations in tissues” value ([7]; single bolus IV TAF administration) was > 8 days and the “TFV-DP mole fraction x(TFV-DP), vaginal tissue, median (IQR)” value ([7]; tissue homogenate, IV TAF dosing) was 0.051 (0.022–0.080).
In the case of `C[C@H](Cn1cnc2c(N)ncnc21)OCP(=O)(O)OP(=O)(O)O` [TFV-MP], the “Detection by MALDI-IMS” value [1] is reported as “detected”, the “Spatial distribution” value [1] is reported as “distributed homogeneously throughout the samples” and the “MALDI-IMS signal and localization” value [1] is reported as “weak”.
